# Experimental data published in US20210220241A1, “Body Sculpting” (Sculpt B.V., priority 2014, published 2021).
# Legend:
# human volunteers = assay: Blood pressure, heart rate and side effects in human volunteers (Example 10); conditions: humans, topical hydrogel treatment regimes
# [1] = Skin and fat penetration assay, cubes of human fat with skin (Example 8); type: in vitro ADME; conditions: 0.25 ml hydrogel applied once, 20 hrs
# Procedure: Cubes of human fat (5×5×5 cm) with skin attached from obese female subjects that underwent esthetic surgery was dissected at 4° C. Cubes were transferred to containers so the skin would overlay the rim of the container. 0.25 ml of hydrogels comprising 2.75 mg/ml free octopamine, 5 mg/ml octopamine decanoate or 3.98 mg/ml octopamine pentanoate were applied once and left to penetrate for 20 hrs. Cubes were subsequently frozen at −80° C.
# Upon defrosting, skin was carefully removed taking care not to contaminate the underlying fat. The fat was dissected to yield a column of 1×1 cm of fat that was directly under the site of application. The column was sliced to yield 0.5 cm thick slices covering 0-2cm fat depth under the site of application. Tissue was sonicated in 5 ml PBS (5 mM glucose), samples were spun down (13000 rpm for 30 min at 4° C.). Clear supernatant was removed with an injection needle and syringe and frozen until analysis. Analysis of octopamine was performed as described in Example 7.
# [2] = Stability / hydrolysis in PBS at 37 degrees (Example 6); type: physicochemical; conditions: PBS at 37 degrees
# Procedure: Samples were analyzed using HPLC UV.
# [3] = Plasma levels of octopamine in human volunteers (Example 10); type: in vivo; conditions: humans, 2.5 ml or 5 ml hydrogel
# Procedure: After thorough washing of hands, blood was sampled using […]. Blood (40 microliter) was sampled using a capillary that protruded the cap of the vial and spun down into 300 microliter vials containing 10 microliter of heparin 20 IE/ml. Plasma was pipetted off and transferred to 300 microliter vials and stored at -20° C. until analysis. Octopamine was analyzed as described in Example 7. […] FIG. 17b), and of octopamine pentanoate (3.98 mg/ml, 2.5 ml, once daily); FIG. 17c). Experiments are an average of one or two experiments (n=1-2).
# human subject = assay: Removal of cellulite on a human subject (Example 11); type: in vivo; conditions: hydrogel 3.98 mg/ml, 5 ml once daily, area with moderate cellulite, after three days
# Procedure: A hydrogel comprising 3.98 mg/ml octopamine pentanoate (5 ml) was applied once daily on a human subject in an area with moderate cellulite.
compound,measurement,setting,value
"CCCCC(=O)Oc1ccc(C(O)CN)cc1.Cl (stereo not drawn) [octopamine pentanoate, 4-(2-amino-1-hydroxyethyl)phenyl valeroate hydrochloride]",Side effects,human volunteers,no side effects were reported
same,Concentrations of free octopamine in fat layers (0-2 cm depth) compared with hydrogel comprising octopamine,[1],higher concentrations
same,Penetration through skin and fat tissue,[1],penetrate through both skin and fat tissue
same,Hydrolysis in PBS compared with plasma or fat tissue,[2],much lower rate
same,Plasma levels of free octopamine upon administration of hydrogel,[3],did not result in unacceptable plasma levels
same,Cellulite,human subject,noticeably decreased
